The test system of data set [1] is MCF7. Format: ADME, cell-based. The following applies: human, mcf7, 24 h.
The target in data set [2] is T1, Estrogen receptor alpha (ERalpha) (Homo sapiens, UniProt P03372).
T1 sequence (P03372 whole entry): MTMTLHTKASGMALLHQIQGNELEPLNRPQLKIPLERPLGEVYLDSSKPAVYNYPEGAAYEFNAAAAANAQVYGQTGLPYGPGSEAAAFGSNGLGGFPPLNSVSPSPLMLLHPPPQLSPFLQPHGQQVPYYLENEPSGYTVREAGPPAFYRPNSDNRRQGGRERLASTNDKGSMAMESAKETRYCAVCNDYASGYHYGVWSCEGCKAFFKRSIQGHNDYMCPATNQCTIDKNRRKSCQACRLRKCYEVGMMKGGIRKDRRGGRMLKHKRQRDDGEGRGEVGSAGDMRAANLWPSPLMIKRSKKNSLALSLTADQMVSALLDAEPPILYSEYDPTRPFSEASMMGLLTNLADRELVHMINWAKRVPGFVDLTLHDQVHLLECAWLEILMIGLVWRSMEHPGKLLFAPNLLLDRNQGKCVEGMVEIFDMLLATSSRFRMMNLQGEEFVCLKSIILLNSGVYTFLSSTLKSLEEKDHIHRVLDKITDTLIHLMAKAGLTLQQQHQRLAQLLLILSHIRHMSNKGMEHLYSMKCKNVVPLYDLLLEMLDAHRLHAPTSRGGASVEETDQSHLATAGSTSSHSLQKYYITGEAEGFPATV
As to the kind of experiment: Safety index, ratio of IC50 for test compound to IC50 for paraben for displacement of Fluor.ES2 Green from human ERalpha by TR-FRET competitive binding assay. Particulars: probe Fluor.ES2 Green, read-out: Ratio IC50. On the technique in general: TR-FRET usually uses a lanthanide donor and a delayed reading to cut background.

Data set [3] relates to Staphylococcus aureus. As to the kind of experiment: microbe, parasite or virus in culture. Particulars: 155554A, 16 h.
Description: Antibacterial activity against Staphylococcus aureus 155554A incubated for 16 hrs by microdilution assay
Data set [4] deals with T2, Estrogen receptor (Homo sapiens, UniProt P03372).
T2 sequence (P03372 whole entry): T1 sequence (P03372 whole entry)
Description: Displacement of Fluor.ES2 Green from human ERalpha by TR-FRET competitive binding assay

Data set [5] concerns MCF7. Format: toxicity, cell-based. Particulars: human.
The test system of data set [6] is MCF7. In kind it is toxicity, cell-based. The following applies: human. This is another data set of the same source.
The nature of data set [7]: Solubility of the compound at >512 ug/ml. In kind it is physicochemical.
The target in data set [8] is T1, Estrogen receptor alpha (ERalpha). As to the kind of experiment: Displacement of Fluor.ES2 Green from human ERalpha at 100000 nM by TR-FRET competitive binding assay. Particulars: probe Fluor.ES2 Green.

Structures are written as SMILES. In brackets after ≈: the same amount, converted by molar mass.

As usually defined, the IC50 is the midpoint of a concentration-inhibition curve. Low readings indicate greater potency, high ones weaker potency. As for `CCCCCCCCOC(=O)c1cc(C)c(O)c(C)c1`, in data set [1], the Activity result was “Non-Toxic”. In data set [2], the selectivity ratio was in the range of 20 to 40. Moreover, in data set [3], the MIC worked out at 213 µM (≈ 59.3 µg/mL). In data set [4], this compound showed an IC50 of 16.2 µM.

Regarding `CCCCOC(=O)c1cc(Cl)c(O)c(Cl)c1`, in data set [1], the Activity entry is “Non-Toxic”. The selectivity ratio in data set [2] lay in the range of 20 to 40. Also, the MIC in data set [3] amounted to 245 µM (≈ 64.5 µg/mL). In data set [4], the IC50 is 55.3 µM.

Take `CCCCCCCCOC(=O)c1cc(I)c(O)c(I)c1`: the Activity result in data set [1], in data set [5] and in data set [6] was “Non-Toxic” in each case. Also, in data set [2], the selectivity ratio lay in the range of 20 to 40. In data set [3], this compound came in with an MIC of 31.8 µM (≈ 16 µg/mL). Further, 13.2 µM corresponded to half-maximal inhibition in data set [4] (IC50).

In the case of `CCCCOC(=O)c1cc(O)c(O)c(O)c1` [BUTYL GALLATE], in data set [1], the Activity result was “Non-Toxic”. The same compound returned an MIC in data set [3] of 2060 µM (≈ 465 µg/mL). The compound also showed an IC50 in data set [4] of 8.97 µM.

Take `CCCCOC(=O)c1cc(C)c(O)c(C)c1`: the Activity result in data set [1] is listed as “Non-Toxic”. Besides, in data set [7], the solubility result is given as “Insoluble”. For the same compound, the selectivity ratio in data set [2] fell in the range of 20 to 40. For the same compound, the MIC in data set [3] was above 1040 µM. The same compound had an IC50 in data set [4] of 32.5 µM.

Regarding `CCCCCCCCOC(=O)c1cc(O)c(O)c(O)c1` [OCTYL_GALLATE], in data set [1], the Activity result is reported as “Non-Toxic”. In data set [2], the selectivity ratio lay in the range of 20 to 40. The same compound had an MIC in data set [3] of 210 µM (≈ 59.3 µg/mL). Also, in data set [4], the IC50 came to 8.74 µM.

In the case of `CCCCOC(=O)c1cc(I)c(O)c(I)c1`, the Activity entry in data set [1], in data set [5] and in data set [6] was “Non-Toxic” each time. Besides, in data set [2], the selectivity ratio is 20 to 40. Further, the MIC in data set [3] was determined as 36 µM (≈ 16.1 µg/mL). Moreover, the 50% inhibitory concentration (IC50) in data set [4] worked out at 34.6 µM.

By inhibition is commonly meant the relative decrease from the control value, in per cent. Read a high inhibition as a strong effect. Turning to `CCCCOC(=O)c1cc(C(C)(C)C)c(O)c(C(C)(C)C)c1`, the Activity result in data set [1] is on record as “Non-Toxic”. In addition, in data set [7], the solubility result is “Insoluble”. Moreover, the inhibition at 100 µM in data set [8] turned out to be 20%. The selectivity ratio in data set [2] fell in the range of 20 to 40. Further, the MIC in data set [3] is 834 µM (≈ 256 µg/mL). For the same compound, the IC50 in data set [4] is above 200 µM.

In the case of `CCCCOC(=O)c1ccc(O)c(I)c1`, the Activity result in data set [1] is given as “Non-Toxic”. Also, the MIC in data set [3] is 199 µM (≈ 63.7 µg/mL). Further, the IC50 in data set [4] worked out at 7.98 µM.

For `CCCCOC(=O)c1ccc(O)c(Br)c1`, the Activity result in data set [1] is “Non-Toxic”. Moreover, the MIC in data set [3] was 236 µM (≈ 64.5 µg/mL). The compound also registered an IC50 in data set [4] of 8.21 µM.

`CCCCCCCCOC(=O)c1cc([N+](=O)[O-])c(O)c([N+](=O)[O-])c1`: the Activity entry in data set [1], in data set [5] and in data set [6] was “Non-Toxic” in each case. The selectivity ratio in data set [2] is 20 to 40. In data set [3], this compound gave an MIC of 47 µM (≈ 16 µg/mL). Also, the IC50 in data set [4] stood at 60.4 µM.

With `CC1(C)S[C@@H]2[C@H](NC(=O)Cc3ccccc3)C(=O)N2[C@H]1C(=O)O` [PENICILLIN G], the MIC in data set [3] came out at 0.749 µM (≈ 0.25 µg/mL).

For the compound `CCCCOC(=O)c1cc(OC)c(O)c(OC)c1`, in data set [1], the Activity entry was “Non-Toxic”. In addition, in data set [7], the solubility entry is “Insoluble”. In addition, at 100 µM the inhibition in data set [8] was 20%. Also, in data set [2], the selectivity ratio was 20 to 40. The MIC in data set [3] is 924 µM (≈ 235 µg/mL). This compound also yielded an IC50 in data set [4] above 200 µM.

As to `CCOC(=O)c1ccc(O)cc1` [ETHYLPARABEN], the Activity entry in data set [1] is recorded as “Toxic”.

`CCCCOC(=O)c1ccc(O)cc1` [BUTYLPARABEN]: the Activity result in data set [1] is “Toxic”. The compound further came in with an MIC in data set [3] of 1320 µM (≈ 256 µg/mL).

For `CCCCOC(=O)c1c(F)c(F)c(O)c(F)c1F`, in data set [1], the Activity result is “Non-Toxic”. The selectivity ratio in data set [2] lay in the range of 20 to 40. The same compound showed an MIC in data set [3] of 483 µM (≈ 129 µg/mL). In addition, the IC50 in data set [4] was 29.4 µM.

For the compound `CCCCOC(=O)c1cc(Br)c(O)c(Br)c1`, the Activity result in data set [1], in data set [5] and in data set [6] was “Non-Toxic” throughout. Besides, in data set [2], the selectivity ratio lay in the range of 20 to 40. In addition, the MIC in data set [3] is 91 µM (≈ 32 µg/mL). Further, the IC50 in data set [4] came out at 39.4 µM.

As to `CCCCOC(=O)c1cc([N+](=O)[O-])c(O)c([N+](=O)[O-])c1`, in data set [1], the Activity result is recorded as “Non-Toxic”. 100 µM produced 20% inhibition in data set [8]. Moreover, the selectivity ratio in data set [2] was 20 to 40. For the same compound, the MIC in data set [3] was determined as 1810 µM (≈ 514 µg/mL). This compound also came in with an IC50 in data set [4] above 200 µM.
